We go through 2 substances from paper PMC10116596 (Biochemistry, 2023).

For the test, the target named is LcrH1–168 (Yersinia pestis, UniProt P21207). Type of test: binding, Y. pestis. Conditions: pH 7.8.
Sequence of LcrH1–168 (P21207 whole entry, looked up): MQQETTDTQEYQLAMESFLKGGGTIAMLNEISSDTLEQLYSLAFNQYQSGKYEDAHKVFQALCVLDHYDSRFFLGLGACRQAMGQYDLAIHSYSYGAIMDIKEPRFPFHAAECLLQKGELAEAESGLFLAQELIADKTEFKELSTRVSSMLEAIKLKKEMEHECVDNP

Regarding Ac-QGVQLPAPLA-NH2 [YopB48–57], the ΔH entry is given as “–44 ± 15 kJ/mol” and the “–TΔS” value stood at 5.5 ± 3.59 kcal/mol.
Take Ac-QVPELIKPSQ-NH2 [YopD56–65]: the ΔH entry was “–51 ± 2 kJ/mol” and the “–TΔS” value amounted to 6.69 ± 0.48 kcal/mol.
